Experimental data taken from patent US7658954B2, “Synergistic antipyretic formulation” (Council of Scientific & Industrial Research, priority 2004, dated 2010).
Marks after values point to notes of the source that are not given here.

System: yeast induced pyrexia
Assay: Antipyretic effect on yeast induced pyrexia in rats
Assay type: in vivo
Settings: Paracetamol 150 mg/kg

`CC(=O)Nc1ccc(O)cc1` [Paracetamol] was tested, and the “Rectal temperature before and after treatment” value (0 h) was 37.7 ± 0.2 °C, the “Rectal temperature before and after treatment” value (1 h) was 39.0 ± 0.2 °C and the “Rectal temperature before and after treatment” value (2 h) was 38.1 ± 0.3 °C. The “Rectal temperature before and after treatment” value (3 h) was 37.7 ± 0.2^b ° C and the “Rectal temperature before and after treatment” value (4 h) was 37.6 ± 0.2 °C.
